Laboratory results taken from ChEMBL document CHEMBL1129104, “Synthesis and evaluation of 2-(biphenylmethyl)glutaric acid amide derivatives as neutral endopeptidase inhibitors” (Bioorg Med Chem Lett, 1996).

Target: Neprilysin (Homo sapiens, UniProt P08473)
Experiment: In vitro inhibition of Neutral Endopeptidase

Chain of Neprilysin (P08473 whole entry): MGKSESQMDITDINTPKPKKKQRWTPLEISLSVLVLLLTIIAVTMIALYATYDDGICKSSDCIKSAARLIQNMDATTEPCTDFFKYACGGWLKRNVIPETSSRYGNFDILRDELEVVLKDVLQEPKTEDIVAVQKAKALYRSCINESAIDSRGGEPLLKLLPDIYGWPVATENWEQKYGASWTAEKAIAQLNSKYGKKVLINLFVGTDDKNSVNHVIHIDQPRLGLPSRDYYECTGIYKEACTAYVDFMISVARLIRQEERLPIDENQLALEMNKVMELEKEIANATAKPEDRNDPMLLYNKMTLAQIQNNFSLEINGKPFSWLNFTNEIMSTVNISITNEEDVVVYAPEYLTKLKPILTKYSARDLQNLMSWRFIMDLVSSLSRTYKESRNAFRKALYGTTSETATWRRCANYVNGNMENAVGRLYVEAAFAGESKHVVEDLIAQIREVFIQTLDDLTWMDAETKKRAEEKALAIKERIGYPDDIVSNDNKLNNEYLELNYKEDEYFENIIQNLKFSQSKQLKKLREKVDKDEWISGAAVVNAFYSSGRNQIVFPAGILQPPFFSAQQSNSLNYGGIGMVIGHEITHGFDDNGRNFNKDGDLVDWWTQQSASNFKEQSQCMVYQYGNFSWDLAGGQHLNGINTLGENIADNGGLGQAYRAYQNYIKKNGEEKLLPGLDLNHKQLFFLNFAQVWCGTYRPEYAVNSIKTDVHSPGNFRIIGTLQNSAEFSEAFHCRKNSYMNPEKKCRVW

IC50 [nM]	SMILES
7.4	O=C(O)C(COc1ccccc1)C[C@@H](Cc1ccc(-c2ccccc2)cc1)C(=O)Nc1nnn[nH]1 (some centres not stated)
10	CCCCC(C[C@@H](Cc1ccc(-c2ccccc2)cc1)C(=O)Nc1nc(CC(=O)O)cs1)C(=O)O (single isomer, unassigned; isomer A)
122	O=C(O)CC[C@@H](Cc1ccc(-c2ccccc2)cc1)C(=O)Nc1nc(CC(=O)O)cs1
58	CC(C[C@@H](Cc1ccc(-c2ccccc2)cc1)C(=O)Nc1nc(CC(=O)O)cs1)C(=O)O (some centres not stated)
3.2	O=C(O)CNC(=O)[C@H](Cc1ccc(-c2ccccc2)cc1)C[C@@H](COc1ccccc1)C(=O)O
5.9	O=C(O)CNC(=O)[C@H](Cc1ccc(-c2ccccc2)cc1)C[C@H](COc1ccccc1)C(=O)O
19	O=C(O)C(COc1ccccc1)C[C@@H](Cc1ccc(-c2ccccc2)cc1)C(=O)NCc1nn[nH]n1 (some centres not stated)
3.3	O=C(O)Cc1csc(NC(=O)[C@H](Cc2ccc(-c3ccccc3)cc2)C[C@H](COc2ccccc2)C(=O)O)n1
92	O=C(O)Cc1nnc(NC(=O)[C@H](Cc2ccc(-c3ccccc3)cc2)CC(COc2ccccc2)C(=O)O)s1 (some centres not stated)
0.69	O=C(O)Cc1csc(NC(=O)[C@H](Cc2ccc(-c3ccccc3)cc2)C[C@@H](COc2ccccc2)C(=O)O)n1
9.8	CCCCC(C[C@@H](Cc1ccc(-c2ccccc2)cc1)C(=O)Nc1nc(CC(=O)O)cs1)C(=O)O (stereo in doubt)
65	COCCOCC(CC1(C(=O)N[C@H]2CC[C@@H](C(=O)O)CC2)CCCC1)C(=O)Oc1ccc2c(c1)CCC2 (some centres not stated)
